# Experiments:
# PLK1 = target: T1, PLK1 (Homo sapiens, UniProt P53350); assay: Luciferase assay for PLK1 in HeLa LgBit (Plk1-HiBit KI) cell line; format: cell-based; settings: 300 nM compound, luminescence after 9 hours
# T1 construct: endogenous in cells; host or cells: HeLa cells stably expressing LgBit, with CRISPR/Cas9 knock-in of HiBit at the endogenous PLK1 locus
# Procedure: 2. Luciferase Assay for PLK1
# (1) Preparation and Culture of HeLa LgBit (Plk1-HiBit KI) Cell Line
# A HeLa cell line in which the LgBit vector was transfected and expressed stably was prepared. Then, after constructing gRNA and donor to express the HiBit amino acid sequence behind the C-terminal of the Plk1 gene, which was inherent in the cell, it was inserted into the cell together with a vector capable of expressing CRISPR/Cas9. Only the cells in which the insertion was completed and knock-in had progressed were selected, sub-cultured and used.
# (2) Treatment of Compounds of the Present Invention and Method of Luciferase Assay
# In the case of HeLa LgBit (Plk1-HiBit KI), the compounds were treated after being released after thymidine block, and the process was as follows. Thymidine (Sigma-Aldrich Cat. No. T9250-5G) was completely dissolved in DW and used in the experiment. For thymidine block, the products were treated with 2 mM of thymidine and then incubated for 24 hours. For release and chemical treatment, the medium was suctioned and washed with 1×PBS. TrypLE™ was added and incubated in 37° C. CO2 incubator for 5 min. Cells neutralized by adding complete media were counted through a counter. For each well of a 96-well culture plate (SPL), 3.3×10^4 cells and a total medium volume of 150 μL were seeded and incubated in a CO2 incubator.
# Each cell line was incubated in a CO2 incubator for 18 hours, and Endurazine was added to each well to make up 4% of the total volume. After adding the compound of the present invention in a 96-well white plate (SPL) to a concentration of 300 nM, the wavelength of the plate reader (BMG Labtech, CLARIOstar Plus) was set to […], and then the luminescence was tracked in real time.
# The results are shown in Table 2 below and FIGS. 1 and 2.
# In Table 2, Activity represents the ratio of the luminescence value of each Exemplary Compound treatment group to DMSO treatment group (+++: <0.3, ++ <0.6, + <0.7).
# H526 cell line = assay: Cell viability assay for H526 cell line; format: cell-based; settings: Homo sapiens, NCI-H526, 120 h; H526 cells, 5 days, EZ-Cytox, 0.46-3000 nM
# Procedure: 3. Cell Viability Assay for H526 Cell Line
# (1) Culture of NCI-H526 Cell Line
# (2) Treatment of Compounds of the Present Invention and Method of Cell Viability Assay
# After treating the compound to each well to make the total volume of 200 μL, it was cultured in a CO2 incubator (Thermo Fisher Science, Cat. No. 4111) for 5 days.
# The absorbance of the completely cultured sample was measured by setting the wavelength of a plate reader (BMG Labtech, CLARIOstar Plus) to […], and was measured after shaking for 3 minutes in a plate reader before measurement.
# In Table 3, Activity represents IC50 value of each Exemplary Compound treatment group to H526 cell line (A: <30 nM, B: <50 nM, C: <100 nM, D: <200 nM, E: <400 nM).
# T1 sequence (P53350 whole entry): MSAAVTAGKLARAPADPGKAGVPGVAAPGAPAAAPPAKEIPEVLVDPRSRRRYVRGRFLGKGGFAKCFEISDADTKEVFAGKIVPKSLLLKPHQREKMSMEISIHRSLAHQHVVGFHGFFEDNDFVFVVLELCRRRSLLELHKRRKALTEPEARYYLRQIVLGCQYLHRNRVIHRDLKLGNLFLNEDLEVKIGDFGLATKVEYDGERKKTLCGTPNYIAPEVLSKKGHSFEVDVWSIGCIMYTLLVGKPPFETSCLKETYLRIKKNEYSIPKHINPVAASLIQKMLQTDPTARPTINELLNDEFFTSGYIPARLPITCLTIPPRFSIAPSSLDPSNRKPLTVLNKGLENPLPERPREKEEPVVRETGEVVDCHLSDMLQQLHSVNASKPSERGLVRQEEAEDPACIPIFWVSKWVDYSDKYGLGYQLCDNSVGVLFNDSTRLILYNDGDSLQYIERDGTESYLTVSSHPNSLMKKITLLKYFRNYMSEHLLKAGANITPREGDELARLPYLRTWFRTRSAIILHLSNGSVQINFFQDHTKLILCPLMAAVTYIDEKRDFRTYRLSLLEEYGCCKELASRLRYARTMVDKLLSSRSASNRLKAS
SMILES,Activity: ratio of the luminescence value of each Exemplary Compound treatment group to DMSO treatment group (PLK1),IC50 (H526 cell line) [nM]
"COc1cc(C(=O)NC2CC3(CCN(CCC4(C)CCN(c5ccc(C6CCC(=O)NC6=O)cc5F)C4)CC3)C2)ccc1Nc1ncc2c(n1)N(C(C)C)CC(F)(F)C(=O)N2C (stereo not shown) [Compound 26, 4-((7,7-difluoro-9-isopropyl-5-methyl-6-oxo-6,7,8,9-tetrahydro-5H-pyrimido[4,5-b][1,4]diazepin-2-yl)amino)-N-(7-(2-(1-(4-(2,6-dioxopiperidin-3-yl)-2-fluorophenyl)-3-methylpyrrolidin-3-yl)ethyl)-7-azaspiro[3.5]nonan-2-yl)-3-methoxybenzamide]",++ (++ <0.6),< 30
"COc1cc(C(=O)NC2CC3(CCN(C[C@H]4C[C@@H]5C[C@H]4CN5c4ccc(C5CCC(=O)NC5=O)cc4F)CC3)C2)ccc1Nc1ncc2c(n1)N(C(C)C)CC(F)(F)C(=O)N2C (stereo partly drawn) [Compound 27, 4-((7,7-difluoro-9-isopropyl-5-methyl-6-oxo-6,7,8,9-tetrahydro-5H-pyrimido[4,5-b][1,4]diazepin-2-yl)amino)-N-(7-(((1R,4R,5S)-2-(4-(2,6-dioxopiperidin-3-yl)-2-fluorophenyl)-2-azabicyclo[2.2.1]heptan-5-yl)methyl)-7-azaspiro[3.5]nonan-2-yl)-3-methoxybenzamide]",++ (++ <0.6),< 30
"COc1cc(C(=O)NC2CC3(CCN(CC4CCN(c5ccc(C6CCC(=O)NC6=O)cc5F)C(=O)C4)CC3)C2)ccc1Nc1ncc2c(n1)N(C(C)C)CC(F)(F)C(=O)N2C (stereo not shown) [Compound 28, 4-((7,7-difluoro-9-isopropyl-5-methyl-6-oxo-6,7,8,9-tetrahydro-5H-pyrimido[4,5-b][1,4]diazepin-2-yl)amino)-N-(7-((1-(4-(2,6-dioxopiperidin-3-yl)-2-fluorophenyl)-2-oxopiperidin-4-yl)methyl)-7-azaspiro[3.5]nonan-2-yl)-3-methoxybenzamide]",++ (++ <0.6),< 30
"COc1cc(C(=O)NC2CC3(CCN(CC4CCN(c5ccc(C6CCC(=O)NC6=O)c(OC)c5)CC4)CC3)C2)ccc1Nc1ncc2c(n1)N(C(C)C)CC(F)(F)C(=O)N2C (stereo not shown) [Compound 37, 4-((7,7-difluoro-9-isopropyl-5-methyl-6-oxo-6,7,8,9-tetrahydro-5H-pyrimido[4,5-b][1,4]diazepin-2-yl)amino)-N-(7-((1-(4-(2,6-dioxopiperidin-3-yl)-3-methoxyphenyl)piperidin-4-yl)methyl)-7-azaspiro[3.5]nonan-2-yl)-3-methoxybenzamide]",++ (++ <0.6),
"COc1cc(C(=O)NC2CCN(C3CCN(c4ccc(C5CCC(=O)NC5=O)cc4F)C3)CC2)ccc1Nc1ncc2c(n1)N(C(C)C)CC(F)(F)C(=O)N2C (stereo not shown) [Compound 59, 4-((7,7-difluoro-9-isopropyl-5-methyl-6-oxo-6,7,8,9-tetrahydro-5H-pyrimido[4,5-b][1,4]diazepin-2-yl)amino)-N-(1-(1-(4-(2,6-dioxopiperidin-3-yl)-2-fluorophenyl)pyrrolidin-3-yl)piperidin-4-yl)-3-methoxybenzamide]",++ (++ <0.6),

# Second part, led by results:
Activity: ratio of the luminescence value of each Exemplary Compound treatment group to DMSO treatment group (PLK1),SMILES,IC50 (H526 cell line) [nM]
++ (++ <0.6),"COc1cc(C(=O)NC2CCC(N(C)CC3CCN(c4ccc(C5CCC(=O)NC5=O)cc4F)CC3)CC2)ccc1Nc1ncc2c(n1)N(C(C)C)CC(F)(F)C(=O)N2C (stereo not shown) [Compound 8, 4-((7,7-difluoro-9-isopropyl-5-methyl-6-oxo-6,7,8,9-tetrahydro-5H-pyrimido[4,5-b][1,4]diazepin-2-yl)amino)-N-((1s,4s)-4-(((1-(4-(2,6-dioxopiperidin-3-yl)-2-fluorophenyl)piperidin-4-yl)methyl)(methyl)amino)cyclohexyl)-3-methoxybenzamide]",
++ (++ <0.6),"COc1cc(C(=O)NC2CC3(CCN(CC4CCN(c5ccc(C6CCC(=O)NC6=O)cc5F)CC4)CC3)C2)ccc1Nc1ncc2c(n1)N1CCC[C@@H]1CC(=O)N2C (stereo partly drawn) [Compound 24, N-(7-((1-(4-(2,6-dioxopiperidin-3-yl)-2-fluorophenyl)piperidin-4-yl)methyl)-7-azaspiro[3.5]nonan-2-yl)-3-methoxy-4-(((R)-5-methyl-6-oxo-6,7,7a,8,9,10-hexahydro-5H-pyrimido[5,4-b]pyrrolo[1,2-d][1,4]diazepin-2-yl)amino)benzamide]",< 100
++ (++ <0.6),"COc1cc(C(=O)NC2CC3(CCN(CCC4CCN(c5ccc(C6CCC(=O)NC6=O)cc5F)CC4)CC3)C2)ccc1Nc1ncc2c(n1)N(C(C)C)CC(F)(F)C(=O)N2C (stereo not shown) [Compound 29, 4-((7,7-difluoro-9-isopropyl-5-methyl-6-oxo-6,7,8,9-tetrahydro-5H-pyrimido[4,5-b][1,4]diazepin-2-yl)amino)-N-(7-(2-(1-(4-(2,6-dioxopiperidin-3-yl)-2-fluorophenyl)piperidin-4-yl)ethyl)-7-azaspiro[3.5]nonan-2-yl)-3-methoxybenzamide]",< 30
++ (++ <0.6),"COc1cc(C(=O)NC2CC3(CCN(CC4CCN(Cc5ccc(C6CCC(=O)NC6=O)cc5F)CC4)CC3)C2)ccc1Nc1ncc2c(n1)N(C(C)C)CC(F)(F)C(=O)N2C (stereo not shown) [Compound 34, 4-((7,7-difluoro-9-isopropyl-5-methyl-6-oxo-6,7,8,9-tetrahydro-5H-pyrimido[4,5-b][1,4]diazepin-2-yl)amino)-N-(7-((1-(4-(2,6-dioxopiperidin-3-yl)-2-fluorobenzyl)piperidin-4-yl)methyl)-7-azaspiro[3.5]nonan-2-yl)-3-methoxybenzamide]",
++ (++ <0.6),"COc1cc(C(=O)NC2CCC(CCN3CCN(c4ccc(C5CCC(=O)NC5=O)cc4F)CC3)CC2)ccc1Nc1ncc2c(n1)N(C(C)C)CC(F)(F)C(=O)N2C (stereo not shown) [Compound 41, 4-((7,7-difluoro-9-isopropyl-5-methyl-6-oxo-6,7,8,9-tetrahydro-5H-pyrimido[4,5-b][1,4]diazepin-2-yl)amino)-N-((1s,4s)-4-(2-(4-(4-(2,6-dioxopiperidin-3-yl)-2-fluorophenyl)piperazin-1-yl)ethyl)cyclohexyl)-3-methoxybenzamide]",
+ (+ <0.7),"COc1cc(C(=O)NN2CCC(CN3CCN(C(=O)c4ccc(OC)c(N5CCC(=O)NC5=O)c4)CC3)CC2)ccc1Nc1ncc2c(n1)N(C(C)C)CC(F)(F)C(=O)N2C [Compound 51, 4-((7,7-difluoro-9-isopropyl-5-methyl-6-oxo-6,7,8,9-tetrahydro-5H-pyrimido[4,5-b][1,4]diazepin-2-yl)amino)-N-(4-((4-(3-(2,4-dioxotetrahydropyrimidin-1(2H)-yl)-4-methoxybenzoyl)piperazin-1-yl)methyl)piperidin-1-yl)-3-methoxybenzamide]",

# Source: US11939334B2, “Substituted pyrimido[4,5-b][1,4]diazepines as PLK1 degradation inducers” (UPPTHERA, INC., priority 2021, dated 2024)
